System: HIV-IIIb
Assay: Test A: Antiviral Assays in MT4 Cells
Type: cell-based
Conditions: MT-4 cells infected with HIV-IIIb (0.004 m.o.i.), 5 days of incubation, CellTiter-Glo chemiluminescence readout
Description: Test A: Antiviral Assays in MT4 Cells For the antiviral assay utilizing MT-4 cells, 0.4 μL of 189X test concentration of 3-fold serially diluted compound in DMSO was added to 40 μL of cell growth medium (RPMI 1640, 10% FBS, 1% penicillin/Streptomycin, 1% L-Glutamine, 1% HEPES) in each well of 384-well assay plates (10 concentrations) in quadruplicate. 1 mL aliquots of 2×10e6 MT-4 cells are pre-infected for 1 and 3 hrs respectively, @ 37° C. with 25 μL (MT4) or of either cell growth medium (mock-infected) or a fresh 1:250 dilution of an HIV-IIIb concentrated ABI stock (0.004 m.o.i. for MT4 cells). Infected and uninfected cells are diluted in cell growth medium and 35 uL of 2000 (for MT4) cells is added to each well of the assay plates. Assay plates were then incubated in a 37° C. incubator. After 5 days of incubation, 25 μl of 2× concentrated CellTiter-Glo™ Reagent (catalog #G7573, Promega Biosciences, Inc., Madison, Wis.) was added to each well of the assay plate. Cell lysis was carried out by incubating at room temperature for 2-3 min and then chemiluminescence was read using the Envision reader (PerkinElmer).

[1] = Human immunodeficiency virus 1, IIIB, MT4, 120 h

| Structure (SMILES) | EC50 [1] [nM] | EC50 [nM] |
| --- | --- | --- |
| Cc1cc2cccnc2c(-c2ccc(Cl)cc2)c1[C@H](OC(C)(C)C)C(=O)O [Compound 4J, (S)-2-tert-butoxy-2-(8-(4-chlorophenyl)-6-methylquinolin-7-yl)acetic acid] | 543 | – |
| Cc1cc2nc(-c3cn[nH]c3)ccc2c(-c2ccc3c4c(ccnc24)CCO3)c1[C@H](OC(C)(C)C)C(=O)O (atropisomer, axis not shown) [Compound 78, (S)-2-tert-Butoxy-2-((R)-5-(2,3-dihydropyrano[4,3,2-de]quinolin-7-yl)-7-methyl-2-(1H-pyrazol-4-yl)quinolin-6-yl)acetic acid] | 163 | – |
| Cc1cc2nc(CCc3ccccc3)ccc2c(-c2ccc(Cl)cc2)c1[C@H](OC(C)(C)C)C(=O)O [Compound 37B, (S)-2-tert-butoxy-2-(5-(4-chlorophenyl)-7-methyl-2-phenethylquinolin-6-yl)acetic acid] | 46 | – |
| Cc1cc2nc(C(C)C)ccc2c(-c2ccc3c4c(ccnc24)CCO3)c1[C@H](OC(C)(C)C)C(=O)O [Compound 46, (S)-2-tert-Butoxy-2-((R)-5-(2,3-dihydropyrano[4,3,2-de]quinolin-7-yl)-2-isopropyl-7-methylquinolin-6-yl)acetic acid] | 20 | – |
| Cc1cc2nc(N(C)C)ccc2c(-c2ccc3c4c(ccnc24)CCO3)c1[C@H](OC(C)(C)C)C(=O)O [Compound 96, (S)-2-tert-butoxy-2-((R)-5-(2,3-dihydropyrano[4,3,2-de]quinolin-7-yl)-2-(dimethylamino)-7-methylquinolin-6-yl)acetic acid] | 37 | – |
| Cc1ccc2c(-c3ccc(Cl)cc3)c([C@H](OC(C)(C)C)C(=O)O)c(C)cc2n1 [Compound 2K, (S)-2-tert-butoxy-2-(5-(4-chlorophenyl)-2,7-dimethylquinolin-6-yl)acetic acid] | 55 | – |
| Cc1cc2nc(N3CCOCC3)ccc2c(-c2ccc(Cl)cc2)c1[C@H](OC(C)(C)C)C(=O)O [Compound 29, (S)-2-tert-Butoxy-2-(5-(4-chlorophenyl)-7-methyl-2-morpholinoquinolin-6-yl)acetic acid] | 939 | – |
| Cc1ccc2c(-c3ccc(Cl)cc3Cl)c([C@H](OC(C)(C)C)C(=O)O)c(C)cc2n1 [Compound 5J, (S)-2-tert-butoxy-2-((S)-5-(2,4-dichlorophenyl)-2,7-dimethylquinolin-6-yl)acetic acid] | – | 19 |
| Cc1cc2nc(Cc3ccccc3)ccc2c(-c2ccc3c4c(ccnc24)CCO3)c1[C@H](OC(C)(C)C)C(=O)O (atropisomer, axis not shown) [Compound 53, (S)-2-((R)-2-Benzyl-5-(2,3-dihydropyrano[4,3,2-de]quinolin-7-yl)-7-methylquinolin-6-yl)-2-tert-butoxyacetic acid] | 360 | – |
| Cc1cc2c(ccc(=O)n2C)c(-c2ccc(Cl)cc2)c1[C@H](OC(C)(C)C)C(=O)O [Compound 67, (S)-2-tert-butoxy-2-(5-(4-chlorophenyl)-1,7-dimethyl-2-oxo-1,2-dihydroquinolin-6-yl)acetic acid] | 273 | – |
| Cc1cc2nc(-c3ccnnc3)ccc2c(-c2ccc3c4c(ccnc24)CCO3)c1[C@H](OC(C)(C)C)C(=O)O [Compound 88, (S)-2-tert-butoxy-2-((R)-5-(2,3-dihydropyrano[4,3,2-de]quinolin-7-yl)-7-methyl-2-(pyridazin-4-yl)quinolin-6-yl)acetic acid] | 514 | – |
| Cc1cc2ncccc2c(-c2ccc(Cl)cc2)c1[C@H](OC(C)(C)C)C(=O)O [Compound 3L, (S)-2-tert-butoxy-2-(5-(4-chlorophenyl)-7-methylquinolin-6-yl)acetic acid] | 1060 | – |
| CC#Cc1ccc2c(-c3ccc4c5c(ccnc35)CCO4)c([C@H](OC(C)(C)C)C(=O)O)c(C)cc2n1 (atropisomer, axis not shown) [Compound 44, (S)-2-tert-Butoxy-2-((R)-5-(2,3-dihydropyrano[4,3,2-de]quinolin-7-yl)-7-methyl-2-(prop-1-ynyl)quinolin-6-yl)acetic acid] | 18 | – |
| CCN(C)c1ccc2c(-c3ccc4c5c(ccnc35)CCO4)c([C@H](OC(C)(C)C)C(=O)O)c(C)cc2n1 [Compound 93, (S)-2-tert-Butoxy-2-((R)-5-(2,3-dihydropyrano[4,3,2-de]quinolin-7-yl)-2-(ethyl(methyl)amino)-7-methylquinolin-6-yl)acetic acid] | 94 | – |
| Cc1cc2nc(C3CCC3)ccc2c(-c2ccc3c4c(ccnc24)CCO3)c1[C@H](OC(C)(C)C)C(=O)O (atropisomer, axis not shown) [Compound 47, (S)-2-tert-butoxy-2-((R)-2-cyclobutyl-5-(2,3-dihydropyrano[4,3,2-de]quinolin-7-yl)-7-methylquinolin-6-yl)acetic acid] | 14 | – |
| CC(=O)c1ccc2c(-c3ccc4c5c(ccnc35)CCO4)c([C@H](OC(C)(C)C)C(=O)O)c(C)cc2n1 [Compound 111, (S)-2-((R)-2-Acetyl-5-(2,3-dihydropyrano[4,3,2-de]quinolin-7-yl)-7-methylquinolin-6-yl)-2-tert-butoxyacetic acid] | 352 | – |
| Cc1cc2[nH]c(=O)ccc2c(-c2ccc(Cl)cc2)c1[C@H](OC(C)(C)C)C(=O)O [Compound 8L, (S)-2-tert-butoxy-2-(5-(4-chlorophenyl)-7-methyl-2-oxo-1,2-dihydroquinolin-6-yl)acetic acid] | 559 | – |
| Cc1cc2nc(-c3cn(C)cn3)ccc2c(-c2ccc3c4c(ccnc24)CCO3)c1[C@H](OC(C)(C)C)C(=O)O (atropisomer, axis not shown) [Compound 85, (S)-2-tert-butoxy-2-((R)-5-(2,3-dihydropyrano[4,3,2-de]quinolin-7-yl)-7-methyl-2-(1-methyl-1H-imidazol-4-yl)quinolin-6-yl)acetic acid] | 131 | – |
| Cc1cc2nc(-c3ccccn3)ccc2c(-c2ccc3c4c(ccnc24)CCO3)c1[C@H](OC(C)(C)C)C(=O)O (atropisomer, axis not shown) [Compound 80, (S)-2-tert-Butoxy-2-((R)-5-(2,3-dihydropyrano[4,3,2-de]quinolin-7-yl)-7-methyl-2-(pyridin-2-yl)quinolin-6-yl)acetic acid] | 52 | – |
| Cc1cc2nc(-c3cccnc3)ccc2c(-c2ccc3c4c(ccnc24)CCO3)c1[C@H](OC(C)(C)C)C(=O)O (atropisomer, axis not shown) [Compound 81, (S)-2-tert-butoxy-2-((R)-5-(2,3-dihydropyrano[4,3,2-de]quinolin-7-yl)-7-methyl-2-(pyridin-3-yl)quinolin-6-yl)acetic acid] | 69 | – |
| Cc1cc2nc(C3CC3)ccc2c(-c2ccc3c4c(ccnc24)CCO3)c1[C@H](OC(C)(C)C)C(=O)O (atropisomer, axis not shown) [Compound 58, (S)-2-tert-Butoxy-2-((R)-2-cyclopropyl-5-(2,3-dihydropyrano[4,3,2-de]quinolin-7-yl)-7-methylquinolin-6-yl)acetic acid] | 14 | – |
| Cc1cc2nc(CN(C)c3ccccc3)ccc2c(-c2ccc(Cl)cc2)c1[C@H](OC(C)(C)C)C(=O)O [Compound 14, (S)-2-tert-Butoxy-2-(5-(4-chlorophenyl)-7-methyl-2-((methyl(phenyl)amino)methyl)quinolin-6-yl)acetic acid] | 983 | – |
| Cc1cc2nc(CN(C)C)ccc2c(C2=CCCCC2)c1[C@H](OC(C)(C)C)C(=O)O [Compound 25, (S)-2-tert-butoxy-2-(5-cyclohexenyl-2-((dimethylamino)methyl)-7-methylquinolin-6-yl)acetic acid] | 346 | – |
| Cc1ccc2c(-c3ccc4c5c(cccc35)CCO4)c([C@H](OC(C)(C)C)C(=O)O)c(C)cc2n1 (single isomer, unassigned) [Compound 102A] | – | 13 |
| Cc1cc2nc(-c3ccc(Cl)cc3)ccc2c(-c2ccc3c4c(ccnc24)CCO3)c1[C@H](OC(C)(C)C)C(=O)O (atropisomer, axis not shown) [Compound 56, (S)-2-tert-Butoxy-2-((R)-2-(4-chlorophenyl)-5-(2,3-dihydropyrano[4,3,2-de]quinolin-7-yl)-7-methylquinolin-6-yl)acetic acid] | 40 | – |
| Cc1cc2nc(NC3CC3)ccc2c(-c2ccc(Cl)cc2)c1[C@H](OC(C)(C)C)C(=O)O [Compound 30, (S)-2-tert-butoxy-2-(5-(4-chlorophenyl)-2-(cyclopropylamino)-7-methylquinolin-6-yl)acetic acid] | 153 | – |
| Cc1cc2c(ccc3nncn32)c(-c2ccc(Cl)cc2)c1[C@H](OC(C)(C)C)C(=O)O [Compound 63, (S)-2-tert-butoxy-2-(6-(4-chlorophenyl)-8-methyl-[1,2,4]triazolo[4,3-a]quinolin-7-yl)acetic acid] | 183 | – |
| Cc1cc2nc(-c3ccn[nH]3)ccc2c(-c2ccc3c4c(ccnc24)CCO3)c1[C@H](OC(C)(C)C)C(=O)O (atropisomer, axis not shown) [Compound 71, (S)-2-tert-butoxy-2-((R)-5-(2,3-dihydropyrano[4,3,2-de]quinolin-7-yl)-7-methyl-2-(1H-pyrazol-5-yl)quinolin-6-yl)acetic acid] | 118 | – |
| Cc1ccc2c(-c3ccc4c5c(ccnc35)CCO4)c([C@H](OC(C)(C)C)C(=O)O)c(C)cc2n1 [Compound 23, (S)-2-tert-Butoxy-2-((S)-5-(2,3-dihydropyrano[4,3,2-de]quinolin-7-yl)-2,7-dimethylquinolin-6-yl)acetic acid] | – | 26200 |
